Experimental data published in patent publication US20260217701A1, “SELECTIVE BET INHIBITORS AND USES THEREOF” (Tay Therapeutics Limited, priority 2022, published 2026).
pIC50: −log10 of the molar value. Where “and” joins values, the source holds several entries; their conditions need not be identical. Equal entries are not always repeated. Where two headings read alike, the source gives them in different places.

Key:
[1] = tested on: idiopathic pulmonary fibrosis (bleomycin); assay: Bleomycin IPF model: lung histology, Masson's Trichrome with Ashcroft scoring; assay type: in vivo, C57BI/6J mice; conditions: for Ashcroft scores relative to IPF control group: Day 21
Experimental: Animals were acclimated for two weeks prior to study initiation, and were randomized into the experimental groups outlined in Table 32. Intratracheal (IT) administration of Bleo or PBS control was conducted at the start of the study (Day 0). […] Following administration of Bleo, animals (n=10/group) were included in the study if they met the following guidelines on Day 7: […] A resection of the right lung was weighed and homogenized to determine total hydroxyproline levels by colorimetric assay, and the remaining lung lysate was saved for future analyses. For the morphological assessments, the left lung was inflation-fixed at 25 cm of water pressure with 4% paraformaldehyde in PBS for 1 minute, processed, and then sectioned. Morphological analysis of the lung was conducted using H&E-stained slides. Additional histologic stains for morphological analyses included Masson's Trichrome staining with Ashcroft scoring to determine severity of fibrosis.

IL-22 = IL-22 release from activated human PBMCs (ELISA); assay type: cell-based; conditions: for Percent Inhibition Relative to Control (IL-22): Donors 1-6, two values per donor; for pIC50: Homo sapiens, PBMC
Experimental: Human PBMCs used to analyze inhibition of CXCL10 were collected from 8 donors, PBMCs used to analyze inhibition of IL-17A were collected from 7 donors, and PBMCs used to analyze inhibition of IL-22 were collected from 6 donors. Compounds were serially diluted in 10 mM DMSO and further diluted in assay media to 100× the required final concentration, of which 2 μL was added to the specified well. […] The cell culture supernatant was collected and levels of IL-17A and IL-22 in the supernatant were assessed by ELISA (Invitrogen).

[2] = Bleo + Compound A (1 mg/kg) OG QOD from D7
[3] = Bleo + Compound A (3 mg/kg) OG QOD from D7
[4] = Bleo + Compound A (10 mg/kg) OG QOD from D7

Cn1cc(-c2ccccc2)c(-c2cn(C)c(=O)c3[nH]c(-c4cnn(C(F)(F)F)c4)cc23)cc1=O [Compound A, 6-methyl-4-(1-methyl-2-oxo-5-phenyl-1,2-dihydropyridin-4-yl)-2-(1-(trifluoromethyl)-1H-pyrazol-4-yl)-1,6-dihydro-7H-pyrrolo[2,3-c]pyridin-7-one]
Ashcroft Scoring, Max [1, 2]: 7 | Ashcroft Scoring, Mean [1, 2]: 5.25 | Ashcroft Scoring, Min [1, 2]: 4 | Ashcroft Scoring, Max [1, 3]: 5 | Ashcroft Scoring, Mean [1, 3]: 4.416 | Ashcroft Scoring, Min [1, 3]: 3 | Ashcroft Scoring, Max [1, 4]: 5 | Ashcroft Scoring, Mean [1, 4]: 3.708 | Ashcroft Scoring, Min [1, 4]: 2 | Ashcroft scores relative to IPF control group ([1]; 1, 3, 10 mg/kg): decreased Ashcroft scores | Ashcroft scores relative to IPF control group ([1]; Group 5, 10 mg/kg): significantly reduced Ashcroft scores | Fibrosis in lung tissue (Masson's Trichrome) compared to Group 2 (Bleo+Saline) ([1]; Group 5 (Compound A 10) and Group 6 (Pirfenidone)): qualitatively diminished | potency against IL-22 relative to CXCL10 (IL-22): about 17,000 fold | Biomarker selectivity (IL-22 vs. CXCL 10) (IL-22; Average preliminary biomarker assay): 5178 Fold | Percent Inhibition Relative to Control (IL-22) (IL-22; Compound Conc. 0.000137174 μM): 36.49% and 20.77% and 20.31% and 15% and 13.22% and 40.62% and 42.44% and −18.99% and 2.10% and 20.38% and 35.83% and 13.68% | Percent Inhibition Relative to Control (IL-22) (IL-22; Compound Conc. 0.000411523 μM): 27.24% and 13.07% and 35.55% and 45.22% and 56.28% and 11.33* Percent and 49.71% and 35.72% and 28.88% and 47.8% and 62.34% and 36.26% | Percent Inhibition Relative to Control (IL-22) (IL-22; Compound Conc. 0.001234568 μM): 58.12% and 42.53% and 46.04% and 55.94% and 57.50% and 65.37% and 75.65% and 47.36% and 70.12% and 62.59% and 69.46% and 42.31% | Percent Inhibition Relative to Control (IL-22) (IL-22; Compound Conc. 0.003703704 μM): 71.96% and 57.94% and 67.89% and 62.44% | Percent Inhibition Relative to Control (IL-22) (IL-22; Compound Conc. 0.011111111 μM): 52.73% and 45.71% and 72.33% and 61.13% and 48.74% and 54.26% and 71.04% and 74.68% and 76.83% and 75.01% and 72.99% and 61.33% | Percent Inhibition Relative to Control (IL-22) (IL-22; Compound Conc. 0.033333333 μM): 59.22% and 62.46% and 72.37% and 75.81% and 66.02% and 52.09% and 58.24% and 79.61% and 59.59% and 77.99% and 81.27% and 61.98% | Percent Inhibition Relative to Control (IL-22) (IL-22; Compound Conc. 0.1 μM): 72.76% and 68.86% and 83.13% and 82.57% and 67.92% and 74.39% and 71.46% and 84.71% and 87.61% and 80.76% and 81.88% and 60.98% | Percent Inhibition Relative to Control (IL-22) (IL-22; Compound Conc. 1.52416E−05 μM): −4.73% and 3.62% and −2.47% and −6.99% and −5.22% and 11.96% and 21.53% and −30.35% and −52.69% and −14.1* Percent and −16.32* Percent and −0.25% | Percent Inhibition Relative to Control (IL-22) (IL-22; Compound Conc. 4.57247E−05 μM): −1.30% and −19.44% and 7.09% and −4.72% and −19.37% and 12.73% and 33.63% and −8.80% and 13.17% and 6.1% and 16.75% and −8.17% | pIC50 (IL-22; Average preliminary biomarker assay, read-out: IL-22 IC50 Mean): 9.70 | pIC50 (IL-22; Preliminary biomarker assay, Test Subject 1, read-out: IL-22 IC50): 9.70 | pIC50 (IL-22; Preliminary biomarker assay, Test Subject 2, read-out: IL-22 IC50): 10.00 | pIC50 (IL-22; Preliminary biomarker assay, Test Subject 3, read-out: IL-22 IC50): 9.52 | pIC50 (IL-22; ELISA, read-out: Selectivity (IC50) IL-22): 9.67 | IC50, inhibition of release of IL-22 (IL-22; human PBMCs, 72 hours): sub-nanomolar
